# From ChEMBL document CHEMBL3045067, “-Amino butyric acid analogs as novel potent GABA-AT inhibitors: molecular docking, synthesis, and biological evaluation” (Med Chem Res, 2013)
# Target: 4-aminobutyrate aminotransferase, mitochondrial (Rattus norvegicus, UniProt P50554)
# Experiment: Inhibition of Rattus norvegicus (rat) brain gamma-amino butyrate aminotransferase using gamma-amino butyrate as substrate assessed as decrease in NADPH generation after 30 min by spectrophotometric analysis
# Chain of 4-aminobutyrate aminotransferase, mitochondrial (P50554 whole entry): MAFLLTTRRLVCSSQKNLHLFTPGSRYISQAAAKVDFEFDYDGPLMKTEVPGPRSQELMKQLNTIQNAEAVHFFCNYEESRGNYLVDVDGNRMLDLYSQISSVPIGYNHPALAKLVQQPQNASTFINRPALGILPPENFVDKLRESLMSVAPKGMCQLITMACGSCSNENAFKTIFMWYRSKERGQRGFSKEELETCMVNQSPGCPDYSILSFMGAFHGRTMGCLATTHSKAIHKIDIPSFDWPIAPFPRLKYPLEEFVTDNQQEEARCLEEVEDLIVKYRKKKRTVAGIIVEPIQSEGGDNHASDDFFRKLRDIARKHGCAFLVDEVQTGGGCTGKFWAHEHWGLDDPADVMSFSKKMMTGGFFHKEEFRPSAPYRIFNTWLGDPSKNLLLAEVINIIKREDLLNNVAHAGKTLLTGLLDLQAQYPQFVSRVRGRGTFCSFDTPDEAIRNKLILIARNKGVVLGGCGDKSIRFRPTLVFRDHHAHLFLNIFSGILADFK
row,IC50 [nM],Compound
1,300,NCCCC(=O)N/N=C(/C(=O)c1ccccc1)c1ccccc1
2,560,NCCCC(=O)N/N=C(\c1ccccc1)c1ccc(Br)cc1
3,9950,O=C(O)CCCN=C(/C=C/c1ccccc1)/C=C/c1ccccc1
4,15500,O=C(O)CCC/N=C1/C(=O)c2ccccc2-c2ccccc21
5,16800,O=C(O)CCC/N=C1/C(=O)c2cccc3cccc1c23
6,44100,C/C(=N\CCCC(=O)O)c1ccc2ccccc2c1
7,240,Nc1cccc(C(=O)N/N=C2/c3ccccc3C(=O)c3ccc(O)c(O)c32)c1
8,320,C/C(=N/NC(=O)c1cccc(N)c1)c1cccc(Cl)c1
9,370,Nc1cccc(C(=O)N/N=C(/c2ccccc2)c2ccc(Cl)cc2)c1
10,460,Nc1cccc(C(=O)N/N=C2/c3ccccc3C(=O)c3ccc(Cl)cc32)c1
11,1210,CCc1ccc2c(c1)/C(=N/c1cccc(C(=O)O)c1)c1ccccc1C2=O
12,2780,O=C(O)c1cccc(/N=C2\C(=O)c3ccccc3-c3ccccc32)c1
13,4960,O=C(O)c1cccc(N=C2c3ccccc3C(=O)c3ccccc32)c1
14,91,C/C(=N/NC(=O)CCCN)c1cccc(Cl)c1
15,110,Cc1ccc2c(c1)/C(=N\NC(=O)CCCN)c1ccccc1C2=O
16,140,NCCCC(=O)NN=C1c2ccccc2C(=O)c2ccccc21

# Continued, compound first:
row,Compound,IC50 [nM]
1,NCCCC(=O)N/N=C1\CCCc2ccccc21,280
2,CC12CCC(C1)C(C)(C)/C2=N\CCCC(=O)O (stereo not drawn),10000
3,CC1CCCC/C1=N\CCCC(=O)O (stereo not drawn),20800
4,CC1CCC(C(C)C)/C(=N/CCCC(=O)O)C1 (stereo not drawn),20800
5,C=C(C)C1CC=C(C)/C(=N/CCCC(=O)O)C1 (stereo not drawn),23500
6,CC1=C/C(=N/CCCC(=O)O)CC(C)(C)C1,25900
7,CC1=CC(=O)C=C/C1=N\CCCC(=O)O,30100
8,CC1=C(C)C(=Nc2cccc(C(=O)O)c2)C(C)=C(C)C1=O,6540
9,C/C(=N/NC(=O)CCCN)c1ccccc1Br,73
10,NCCCC(=O)N/N=C/c1cccc(I)c1,150
11,NCCCC(=O)N/N=C1\CCc2ccccc2C1,130
12,NCCCC(=O)N/N=C/c1ccccc1I,200
